Results on 1 molecule are retold here after article PMC6079302, “Investigating the Mechanism of Action of Diketopiperazines Inhibitors of the Burkholderia cenocepacia Quorum Sensing Synthase CepI: A Site-Directed Mutagenesis Study” (Frontiers in Pharmacology, 2018).

One test concerns the target T1, CepI wild type (Burkholderia cenocepacia, UniProt B4EMD2).
T1 sequence (B4EMD2 1-202): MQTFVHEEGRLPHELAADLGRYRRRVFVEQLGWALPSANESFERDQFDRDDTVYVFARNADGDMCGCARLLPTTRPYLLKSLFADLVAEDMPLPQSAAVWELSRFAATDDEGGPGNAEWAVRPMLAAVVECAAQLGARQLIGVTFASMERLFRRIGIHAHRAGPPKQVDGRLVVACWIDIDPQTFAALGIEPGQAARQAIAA
Nature of the test: CepI activity assay (DCPIP), IC50 determination, wild type enzyme. It is filed as biochemical. To be noted: 70 μM C8-ACP, 40 μM SAM, 4 μM CepI, read-out: compound 8b IC50. As for the experimental part:
Wild type and mutant CepI were expressed in Escherichia coli BL21(DE3) cells and purified as previously described ([Scoffone et al., 2016]).
CepI activity was determined according to [Christensen et al. (2013)]. Reaction mixtures contained 50 mM 4-(2-hydroxyethyl)-1-piperazineethanesulfonic acid (HEPES) pH 7.5, 0.005% Nonidet P-40, 0.13 mM 2,6-dichlorophenylindophenol (DCPIP), 70 μM Octanoyl-ACP (C8-ACP, prepared as reported previously) ([Quadri et al., 1998]; [Cronan and Thomas, 2009]), 40 μM S-adenosyl methionine (SAM), 4 μM CepI.
IC50 was determined measuring the enzyme activity in presence of different concentrations of compound, and values determined with the following equation ([Copeland, 2000]), where A[I] is the enzyme activity at inhibitor concentration [I] and A[0] is the enzyme activity without inhibitor.

Another test has as its target T2, CepI R24Q mutant (Burkholderia cenocepacia, UniProt B4EMD2, R24Q).
T2 sequence (B4EMD2 1-202 R24Q): T1 sequence (B4EMD2 1-202)
The test is described as follows: CepI activity assay (DCPIP), IC50 determination, R24Q mutant. It is filed as biochemical.

The target in another test is T3, CepI E40Q mutant (Burkholderia cenocepacia, UniProt B4EMD2, E40Q).
T3 sequence (B4EMD2 1-202 E40Q): T1 sequence (B4EMD2 1-202)
The test is described as follows: CepI activity assay (DCPIP), IC50 determination, E40Q mutant. It is filed as biochemical.

For another test, the target named is T4, CepI S41A mutant (Burkholderia cenocepacia, UniProt B4EMD2, S41A).
T4 sequence (B4EMD2 1-202 S41A): T1 sequence (B4EMD2 1-202)
The test is described as follows: CepI activity assay (DCPIP), IC50 determination, S41A mutant. It is filed as biochemical.

In another test the target is T5, CepI S41R mutant (Burkholderia cenocepacia, UniProt B4EMD2, S41R).
T5 sequence (B4EMD2 1-202 S41R): T1 sequence (B4EMD2 1-202)
Nature of the test: CepI activity assay (DCPIP), IC50 determination, S41R mutant. Particulars: compound 8b IC50, CepI S41R; 70 μM C8-ACP, 40 μM SAM, 4 μM CepI. It is filed as biochemical.

The target in a further test is T6, CepI Q46R mutant (Burkholderia cenocepacia, UniProt B4EMD2, Q46R).
T6 sequence (B4EMD2 1-202 Q46R): T1 sequence (B4EMD2 1-202)
Nature of the test: CepI activity assay (DCPIP), IC50 determination, Q46R mutant. It is filed as biochemical.

A further test concerns B. cenocepacia J2315. The test is described as follows: Proteomic analysis (2-DE, LC-MS/MS) of treated cells compared with the ΔcepI strain. It is filed as cell-based, Burkholderia cenocepacia. To be noted: J2315 cells treated with 25 μM 8b, compared with untreated J2315; same as ΔcepI profile. On the procedure:
Burkholderia cenocepacia ΔcepI ([Udine et al., 2013]) and J2315 (with or without 25 μM of 8b compound) were grown in 10 ml of LB medium until OD600 nm > 2. Cells were then harvested, resuspended in 0.2 ml of Tris-HCl 50 mM, pH 7.5, disrupted by sonication, and centrifuged at 12,000 rpm for 1 h at 4°C.
The amount of proteins present in the supernatant was quantified by bicinchoninic acid method ([Smith et al., 1985]), then 300 μg were precipitated with 10% (v/v) trichloroacetic acid. The obtained protein pellet was dissolved in 125 μL of rehydration buffer (8 M urea, 4% CHAPS (w/v), 65 mM DTE, 0.8% carrier ampholytes (v/v) and 0.5% bromophenol blue) and loaded onto 7 cm IPG strips, with nonlinear pH 3–10 gradient range (GE Healthcare), and strips rehydrated for 1 h at 20°C. The first-dimensional IEF was carried out at 15°C using an Ettan IPGphor system (GE Healthcare), by applying 30 V for 8 h, 120 V for 1 h, 500 V for 0.5 h, 1000 V for 0.5 h and 5000 V for 6 h, for a total of 29–30 kVh. […] Digital images of stained gels were acquired using VersaDoc Imaging Model 3000 (BioRad) and then subjected to quali/quantitative analysis using the PD Quest (BioRad) version 8.0.1 software. […] The software then determined the amount of spots present and calculated their intensity by applying the following algorithm: peak value (ODs/image units) ^∗σx^∗σy (standard deviations in x and y). […]

Regarding `O=C1C=CC(=O)C(C2NC(=O)[C@H](Cc3ccccc3)NC2=O)=C1` (stereo partly drawn) [8b, (3S)-3-Benzyl-6-(3,6-dioxocyclohexa-1,4-dien-1-yl)piperazine-2,5-dione], the IC50 (commonly the concentration at which inhibition is half-maximal) on CepI wild type was found to be 7.2 ± 0.2 µM; against CepI R24Q mutant, 147 ± 17 µM; against CepI E40Q mutant, 53 ± 2.6 µM; against CepI S41A mutant it was 113 ± 11 µM; on CepI S41R mutant, 1070 ± 75 µM; against CepI Q46R mutant, 19.2 ± 3.5 µM. The “compound 8b IC50” value on CepI Q46R mutant (CepI Q46R, 70 μM C8-ACP, 40 μM SAM, 4 μM CepI) is recorded as “comparable to wild type CepI”. For the same molecule, in the test with B. cenocepacia J2315, the “density of the 2-DE protein spot of the giant cable pilus protein CblA” value was “higher density”.
